Laboratory results as given in PubChem BioAssay (NCI).
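Briefly, cells in 96-well plates were exposed to five compound concentrations for 48 h, and endpoints were estimated by linear interpolation. Here, GI50 denotes the concentration required for 50% inhibition of growth. TGI: total growth inhibition.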

Experiments:
Experiment in all cases: DTP human tumour cell line panel, 48 h
[1] = test system: IGROV1 ovarian
[2] = test system: MCF7 breast
[3] = test system: MDA-N
[4] = test system: NCI-H226 lung
[5] = test system: RPMI-8226 leukemia
[6] = test system: SN12C renal
[7] = test system: TK-10 renal
[8] = test system: U251 CNS
[9] = test system: UO-31 renal
[10] = test system: HL-60(TB) leukemia

Row | Compound | TGI [1] [µM] | TGI [2] [µM] | TGI [3] [µM] | TGI [4] [µM] | TGI [5] [µM] | TGI [6] [µM] | TGI [7] [µM] | TGI [8] [µM] | TGI [9] [µM] | TGI [10] [µM] | GI50 [10] [µM] | GI50 [1] [µM] | GI50 [2] [µM] | GI50 [4] [µM] | GI50 [5] [µM] | GI50 [6] [µM] | GI50 [7] [µM] | GI50 [8] [µM] | GI50 [9] [µM]
1 | C=C(C)C12CC(COC(=O)c3ccccc3)C34OC5(OC1C3C1OC1(CO)C(O)C1(O)C(OC(=O)c3ccccc3)C(C)C(C(C)CCCCCCC5O)C14)O2 (centres undefined) | > 100 | > 100 | > 100 | > 100 | > 75.8 | > 100 | 81.2 | > 74.6 | > 100 |  |  |  |  |  |  |  |  |  | 
2 | COc1cccc(-c2cc(=O)c3ccccc3o2)c1N | > 100 | > 100 | > 100 | > 100 | > 100 | > 100 | > 100 | > 100 | > 100 | > 100 |  |  |  |  |  |  |  |  | 
3 | Cc1nnc(Nc2ccccc2)o1 |  | > 100 | > 100 | > 100 | > 100 | > 100 | > 100 | > 100 | > 100 | > 100 |  |  |  |  |  |  |  |  | 
4 | c1ccc(C2C3=C(Nc4ncnn42)c2ccccc2C3)cc1 (centres undefined) | > 100 |  |  |  | > 100 | > 100 | > 100 | 17.7 | > 100 | > 100 |  |  |  |  |  |  |  |  | 
5 | C[C@@]12[C@H]3CC[C@@H]1[C@H](O)C(=O)N2CC3 | > 100 | > 100 | > 100 | > 100 | > 100 |  | > 100 | > 100 | > 100 | > 100 |  |  |  |  |  |  |  |  | 
6 | OCc1ccc2[n+](c1)CCC1c3ccccc3NC21 (centres undefined) | > 300 |  |  | > 300 | > 300 | > 300 | > 300 | > 300 |  | > 300 |  |  |  |  |  |  |  |  | 
7 | COc1ccc(C2CC(c3c(O)ccc4ccccc34)=NN2c2ccc([N+](=O)[O-])cc2[N+](=O)[O-])cc1OC (centres undefined) | > 71.2 | > 91.7 | > 100 | 48.9 | 15.8 | > 100 | > 100 | > 100 | 97.4 |  |  |  |  |  |  |  |  |  | 
8 | CN(C)/N=N/c1nc2c(c(=O)n(C)c(=O)n2C)n1C | > 100 | > 100 | > 100 | > 100 | > 100 | > 100 | > 100 | > 100 | > 100 |  |  |  |  |  |  |  |  |  | 
9 | Cc1ccc(C(=O)Nc2ccc(CP(=O)(O)O)cc2CP(=O)(O)O)cc1NC(=O)c1cccc(N)c1 | > 100 | > 100 | > 100 | > 100 | > 100 | > 100 | > 100 | > 100 | > 100 | > 100 |  |  |  |  |  |  |  |  | 
10 | CCN(CC)CCc1c2c(nc3ccccc13)C(=O)c1cccnc1C2=O | 5.53 | 1.51 | 4.54 | 18.2 | 6.43 | 5.92 | 12.6 | 20 |  | 1.41 |  |  |  |  |  |  |  |  | 
11 | COc1ccc(C(C#N)NNC(=O)c2ccccc2O)cc1OC (centres undefined) | > 100 |  |  | 22.4 | > 100 | > 100 | > 100 | > 100 | 2.2 | 30.2 |  |  |  |  |  |  |  |  | 
12 | COc1ccc2[nH]c(O)c(/C=c3/cc4c(c(-c5cc(OC)c(OC)c(OC)c5)n3)=Nc3ccccc3-4)c2c1 | > 100 | > 100 |  | > 100 | 11.5 | > 100 | > 100 | > 100 | > 100 | 34 | 7.46 | > 100 | 2.11 | > 100 | 1.89 | 61.2 | 18.5 | 3.53 | 6.62
13 | NC(N)=NS(=O)(=O)c1ccc(NCc2c3ccccc3[n+]([O-])c3ccccc23)cc1 | > 100 |  |  | 72.8 | 74.3 | > 100 | > 100 | > 100 | 73.8 | 44.4 |  |  |  |  |  |  |  |  | 
14 | CCOP(=O)(OCC)/C(C#N)=C/c1cnc(-c2ccccc2)[nH]1 | > 100 | > 100 | > 100 | > 100 | > 100 | > 100 |  | > 100 | > 100 | > 100 |  |  |  |  |  |  |  |  | 
15 | CC(C)(C)c1ccc2c(c1)CNCCNCc1cc(C(C)(C)C)ccc1OCC1(CO2)COc2ccc(C(C)(C)C)cc2CNCCNCc2cc(C(C)(C)C)ccc2OC1 | 2.5 |  | 2.14 | 2.26 | 4.2 |  | 3.32 | 0.479 | 3.25 | 0.475 |  |  |  |  |  |  |  |  | 
16 | CC1(C)CC(/C=C2/OC(=O)c3ccccc32)=C(C#N)C(=O)O1 | > 100 |  |  | > 100 | > 100 | > 100 |  | > 100 | > 100 |  |  |  |  |  |  |  |  |  | 
17 | CC(C)c1ccc2[nH]c(O)c(-c3[nH]c4ccccc4c3N=O)c2c1 | 21.2 | 5.71 | 19.2 | 29.4 | 22.3 | 16.8 | 43.4 | 19.9 | 12 |  |  |  |  |  |  |  |  |  | 
18 | O=C(CCCCCCCCC(=O)NN1C(=O)/C(=C\c2ccc(O)c(O)c2)SC1c1ccc(Cl)cc1)NN1C(=O)/C(=C\c2ccc(O)c(O)c2)SC1c1ccc(Cl)cc1 (centres undefined) | > 29.5 | > 100 | > 100 | > 100 | > 31.6 | > 100 | > 100 | > 55.1 | > 55 |  |  |  |  |  |  |  |  |  | 
19 | CC(C)Sc1nc(C#N)cc2c1CCCC2 | > 100 | > 100 | > 100 | > 100 | 68.9 | > 100 | > 100 | > 100 | > 100 |  |  |  |  |  |  |  |  |  | 
20 | COC(=O)C1(C(=O)OC)CC2=C(S(=O)(=O)c3ccccc3)C[C@H](S(=O)(=O)c3ccccc3)[C@H]2C1 | 49.9 |  | > 100 | > 100 | > 100 | > 100 | > 100 | > 100 | > 100 |  |  |  |  |  |  |  |  |  | 
21 | N.N.N.O=[N+]([O-])[O-].O=[N+]([O-])[O-].O=[N+]([O-])[O-].O=[N+]([O-])[O-].[Co+3] | > 100 |  |  |  | > 100 | > 100 | > 100 | > 100 | > 100 | > 100 |  |  |  |  |  |  |  |  | 
22 | COC(=O)CC(=O)C[P+](c1ccccc1)(c1ccccc1)c1ccccc1 | > 218 |  |  | > 218 | > 218 | > 218 | > 218 | > 218 |  | 149 |  |  |  |  |  |  |  |  | 
